This passage reports mutagenic call results from PubChem BioAssay AID1259407 (Chemical Carcinogenesis Research Information System (CCRIS), 2018).

Active and inactive are the calls of the source. The rule behind the calls is not given here.

For the series, the system named is CCRIS mutagenicity, Ames/micronucleus/aberration tests. In words: CCRIS mutagenicity studies.

Regarding `Cn1c(N)nc2ncc(-c3ccccc3)cc21`, the mutagenic call is “active; positive” (End Point: IN VITRO MICRONUCLEUS, Test System: CHL/IU CELLS, Metabolic Activation: RAT, LIVER, S-9, PHENOBARBITAL AND 5,6-BENZOFLAVONE); “active; positive” (End Point: IN VIVO MICRONUCLEUS, Test System: BONE MARROW POLYCHROMATIC ERYTHROCYTES, Species: MOUSE, Strain/Sex: BALB/C/MALE, Route: IP INJECTION); “active; positive only for 48.8 mg dose at either 2 or 16 days after treatment” (End Point: IN VIVO MICRONUCLEUS, Test System: SPLENOCYTES, Species: MOUSE, Strain/Sex: BALB/C, Route: IO); “active; positive” (Test System: AMES SALMONELLA TYPHIMURIUM, Strain/Indicator: TA98(1,8-DNP6), Metabolic Activation: RAT, LIVER, S-9, AROCLOR, Method: PREINCUBATION); “active; positive” (Test System: AMES SALMONELLA TYPHIMURIUM, Strain/Indicator: TA98(1,8-DNP6), Metabolic Activation: RAT, LIVER, S-9, Method: STANDARD PLATE); “active; positive” (Test System: AMES SALMONELLA TYPHIMURIUM, Strain/Indicator: TA98, Metabolic Activation: HUMAN, LIVER, MICROSOMES, Method: PREINCUBATION). The mutagenic call is “active; positive” (Test System: AMES SALMONELLA TYPHIMURIUM, Strain/Indicator: TA98, Metabolic Activation: MONKEY, LIVER, MICROSOMES, Method: PREINCUBATION); “inactive; negative” (Test System: AMES SALMONELLA TYPHIMURIUM, Strain/Indicator: TA98, Metabolic Activation: MOUSE, KIDNEY, S-9, PHENETHYL ISOTHIOCYANATE, Method: STANDARD PLATE); “inactive; negative” (Test System: AMES SALMONELLA TYPHIMURIUM, Strain/Indicator: TA98, Metabolic Activation: MOUSE, KIDNEY, S-9, Method: STANDARD PLATE); “active; positive” (Test System: AMES SALMONELLA TYPHIMURIUM, Strain/Indicator: TA98, Metabolic Activation: MOUSE, LIVER, S-9, PHENETHYL ISOTHIOCYANATE, Method: STANDARD PLATE); “active; positive” (Test System: AMES SALMONELLA TYPHIMURIUM, Strain/Indicator: TA98, Metabolic Activation: MOUSE, LIVER, S-9, Method: STANDARD PLATE); “inactive; negative” (Test System: AMES SALMONELLA TYPHIMURIUM, Strain/Indicator: TA98, Metabolic Activation: MOUSE, LUNG, S-9, PHENETHYL ISOTHIOCYANATE, Method: STANDARD PLATE). In addition, the mutagenic call is, setting by setting: (Test System: AMES SALMONELLA TYPHIMURIUM, Strain/Indicator: TA98, Metabolic Activation: MOUSE, LUNG, S-9, Method: STANDARD PLATE) “inactive; negative”; (Test System: AMES SALMONELLA TYPHIMURIUM, Strain/Indicator: TA98, Metabolic Activation: RAT, COLON, S-9, 3-METHYLCHOLANTHRENE, Method: STANDARD PLATE) “inactive; negative”; (Test System: AMES SALMONELLA TYPHIMURIUM, Strain/Indicator: TA98, Metabolic Activation: RAT, LIVER, HEPATOCYTES, AROCLOR 1254, Method: PREINCUBATION) “active; positive”; (Test System: AMES SALMONELLA TYPHIMURIUM, Strain/Indicator: TA98, Metabolic Activation: RAT, LIVER, HEPATOCYTES, Method: PREINCUBATION) “active; positive”; (Test System: AMES SALMONELLA TYPHIMURIUM, Strain/Indicator: TA98, Metabolic Activation: RAT, LIVER, MICROSOMES, Method: PREINCUBATION) “active; positive”; (Test System: AMES SALMONELLA TYPHIMURIUM, Strain/Indicator: TA98, Metabolic Activation: RAT, LIVER, S-9, AROCLOR 1254, Method: PREINCUBATION) “active; positive”. Further, the mutagenic call was “active; positive” (Test System: AMES SALMONELLA TYPHIMURIUM, Strain/Indicator: TA98, Metabolic Activation: RAT, LIVER, S-9, AROCLOR, Method: PREINCUBATION); “active; positive” (Test System: AMES SALMONELLA TYPHIMURIUM, Strain/Indicator: TA98, Metabolic Activation: RAT, LIVER, S-9, Method: STANDARD PLATE); “active; positive” (Test System: AMES SALMONELLA TYPHIMURIUM, Strain/Indicator: TA98, Metabolic Activation: S-9, Method: MICROSUSPENSION); “inactive; negative” (Test System: AMES SALMONELLA TYPHIMURIUM, Strain/Indicator: TA100, Metabolic Activation: RAT, LIVER, S-9, AROCLOR 1254, Method: PREINCUBATION); “active; positive” (Test System: AMES SALMONELLA TYPHIMURIUM, Strain/Indicator: TA1978, Metabolic Activation: S-9 (0.5 ML), Method: MICROSUSPENSION); “inactive; negative” (Test System: AMES SALMONELLA TYPHIMURIUM, Strain/Indicator: TA1978, Metabolic Activation: S-9 (2 MG/ML, 0.1 ML), Method: MICROSUSPENSION). The mutagenic call runs as follows: (Test System: AMES SALMONELLA TYPHIMURIUM, Strain/Indicator: TA1978, Metabolic Activation: S-9 (2 MG/ML, 0.25 ML), Method: MICROSUSPENSION) “active; positive”; (Test System: AMES SALMONELLA TYPHIMURIUM, Strain/Indicator: YG1019, Metabolic Activation: RAT LIVER S-9, AROCLOR, Method: PREINCUBATION) “active; positive”; (Test System: AMES SALMONELLA TYPHIMURIUM, Strain/Indicator: YG1024, Metabolic Activation: RAT, COLON, S-9, 3-METHYLCHOLANTHRENE, Method: STANDARD PLATE) “inactive; negative”; (Test System: AMES SALMONELLA TYPHIMURIUM, Strain/Indicator: YG1024, Metabolic Activation: RAT, LIVER, S-9, AROCLOR, Method: PREINCUBATION) “active; positive”; (Test System: CHINESE HAMSTER V-79, Strain/Indicator: V-79/6-THIOGUANINE, Metabolic Activation: HAMSTER, PANCREAS DUCT, EPITHELIAL CELLS) “active; positive”; (Test System: CHINESE HAMSTER V-79, Strain/Indicator: V-79/6-THIOGUANINE, Metabolic Activation: HUMAN, PANCREAS DUCT, EPITHELIAL CELLS) “active; positive”. Besides, the mutagenic call was “active; positive” (Test System: CHINESE HAMSTER V-79, Strain/Indicator: XEMH1A2-MZ (HPRT)/6-THIOGUANINE, Metabolic Activation: NONE); “active; positive” (Test System: HUMAN COLON CANCER CELLS, Strain/Indicator: DLD-1 (HPRT)/6-THIOGUANINE, Metabolic Activation: MOUSE LIVER S-9, PHENOBARBITAL AND 5,6-BENZOFLAVONE, Method: SUSPENSION/PLATE); “active; positive” (Test System: HUMAN COLON CANCER CELLS, Strain/Indicator: HCT116 (HPRT)/6-THIOGUANINE, Metabolic Activation: MOUSE LIVER S-9, PHENOBARBITAL AND 5,6-BENZOFLAVONE, Method: SUSPENSION/PLATE); “active; positive” (Test System: UDS HUMAN HEPATOCYTES, Strain/Indicator: THY INCORP, Metabolic Activation: NONE, Method: AUTORADIOGRAPHY); “active; positive” (Test System: UDS MOUSE HEPATOCYTES, Strain/Indicator: THY INCORP, Metabolic Activation: NONE, Method: AUTORADIOGRAPHY).
As to `C#CCOCCn1cc[n+](C)c1/C=N/O`, the mutagenic call (Test System: AMES SALMONELLA TYPHIMURIUM, Strain/Indicator: TA97, Metabolic Activation: NONE, Method: STANDARD PLATE) was “inactive; negative”; the mutagenic call (Test System: AMES SALMONELLA TYPHIMURIUM, Strain/Indicator: TA97, Metabolic Activation: S-9, Method: STANDARD PLATE) was “inactive; negative”; the mutagenic call (Test System: AMES SALMONELLA TYPHIMURIUM, Strain/Indicator: TA100, Metabolic Activation: NONE, Method: STANDARD PLATE) is “inactive; negative”; the mutagenic call (Test System: AMES SALMONELLA TYPHIMURIUM, Strain/Indicator: TA100, Metabolic Activation: S-9, Method: STANDARD PLATE) was “inactive; negative”; the mutagenic call (Test System: AMES SALMONELLA TYPHIMURIUM, Strain/Indicator: TA104, Metabolic Activation: NONE, Method: STANDARD PLATE) was “inactive; negative”; the mutagenic call (Test System: AMES SALMONELLA TYPHIMURIUM, Strain/Indicator: TA104, Metabolic Activation: S-9, Method: STANDARD PLATE) is “inactive; negative”. Besides, the mutagenic call is, setting by setting: (Test System: AMES SALMONELLA TYPHIMURIUM, Strain/Indicator: TA1537, Metabolic Activation: NONE, Method: STANDARD PLATE) “inactive; negative”; (Test System: AMES SALMONELLA TYPHIMURIUM, Strain/Indicator: TA1537, Metabolic Activation: S-9, Method: STANDARD PLATE) “inactive; negative”; (Test System: AMES SALMONELLA TYPHIMURIUM, Strain/Indicator: TA1538, Metabolic Activation: NONE, Method: STANDARD PLATE) “inactive; negative”; (Test System: AMES SALMONELLA TYPHIMURIUM, Strain/Indicator: TA1538, Metabolic Activation: S-9, Method: STANDARD PLATE) “inactive; negative”.
As to `CCN=NNCC`, the mutagenic call (Test System: AMES SALMONELLA TYPHIMURIUM, Strain/Indicator: TA1535, Metabolic Activation: NONE, Method: STANDARD PLATE) was “active; positive”.
On to `c1ccc2c(c1)cnc1ccccc12`, for which the mutagenic call reads like this: (Test System: AMES SALMONELLA TYPHIMURIUM, Strain/Indicator: TA98, Metabolic Activation: RAT, LIVER, S-9, PCB, Method: STANDARD PLATE) “active; positive”; (Test System: AMES SALMONELLA TYPHIMURIUM, Strain/Indicator: TA100, Metabolic Activation: RAT, LIVER, S-9, PCB, Method: STANDARD PLATE) “active; positive”.
Turning to `Cc1cc2c(nc(N)n2C)c2nccnc12`, the mutagenic call (Test System: AMES SALMONELLA TYPHIMURIUM, Strain/Indicator: TA98, Metabolic Activation: RAT, LIVER, S-9, AROCLOR 1254, Method: STANDARD PLATE) is “active; positive”.
